Reference: patent publication US4910203A, “Pteridine compounds” (priority 1984, dated 1990)
Like-named read-outs stand apart in the source and are kept apart here.

Tests used:
male Wistar rats [1] = assay: Diuresis test with individual pteridine compounds, intravenous, urine after 2.5 hours; format: in vivo; settings: 2.5 μmol/kg i.v.; for K^+ -excretion: control 0.609; for Na^+ -excretion: control 0.83; for Volume of urine: control 7.37
Description: They were orally given 20 ml/kg of an 0.9% NaCl solution just before the test substance was administered intravenously. […] Injection was into the caudal vein under light ether anasthesia. As a rule six test animals were used per test. […] Analysis was performed as for the determination of potency given above. IA stands for 2,4,7-triamino-6-[4-(2-hydroxy-3-dimethylaminopropoxy)phenyl]-pteridine.

[2] = cited from earlier work
male Wistar rats [3] = assay: Diuresis test: ED50 dose response, intravenous, urine electrolytes after 2.5 hours; format: in vivo; settings: for ED50: Rattus norvegicus, iv, urine collected after 2.5 hours
Description: For the tests, male Wistar rats of about 130 g body weight from which food had been withheld for 18 hours were used. […] Intravenous administration for determining K^+ was at dosage intervals for the actiee substance of 0.05, 0.1, 0.2, 0.3, 0.6, 1, and 2 mg/kg: for determining Na^+ at dosage intervals of 0.5, 1, 2, 4, 8, 16 and 20 mg/kg. For the prior art substances compared, the same tests were made and these substances were further administered at 30 mg/kg and 100 mg/kg. Injection was into the caudal vein under light etherization. […] Peroral administration was by means of a stomach tube into the gastrointestinal tract.
Dose response curves were constructed by the use of non-linear regression analysis using the NONLIN computer program of C. Daniel and F. S. Wood in "Fitting Equations to Data" (J. Wiley & Sons, New York, 1980).
The characteristic quantity ED50 (potency) used in determining the diuretic activity is defined as the amount of active substance per kilogram of body weight required to produce a response in 50 percent of the subjects.

male Wistar rats [4] = settings: furosemide 8.27 mg/kg i.v. alone; 1.5 hours; mean; control 5.0
Description: They were orally given 20 ml/kg of an 0.9% NaCl solution just before the test substance was administered intravenously. […] Injection was into the caudal vein under light ether anasthesia. As a rule six test animals were used per test. The animals were individually placed into diuresis cages and the urine was collected after 1.5 hours. Analysis was performed as for the determination of potency given above. IA stands for 2,4,7-triamino-6-[4-(2-hydroxy-3-dimethylaminopropoxy)phenyl]-pteridine.

[5] = K^+ (potassium-sparing), read-out: ED50 K^+
[6] = Na^+ (natriuretic), read-out: ED50 Na^+

CCN(CC)CC(O)COc1ccc(-c2nc3c(N)nc(N)nc3nc2N)cc1 (centres unmarked) [IE, 2,4,7-Triamino-6-[4-(2-hydroxy-3-diethylaminopropoxy)phenyl]-pteridine]
K^+ -excretion (male Wistar rats [1]): 0.163 mmol/kg
Na^+ -excretion (male Wistar rats [1]): 2.61 mmol/kg
Volume of urine (male Wistar rats [1]): 0.01102 L/kg

Nc1nc(N)c2nc(-c3ccc(OCCCCC(=O)O)cc3)c(N)nc2n1 [Val-O-TA, 2,4,7-triamino-6-[4-(4-carboxybutoxy)phenyl]-pteridine]
diuretic, natriuretic, and antikaliuretic activity ([2]; administered intravenously): exhibit diuretic, natriuretic, and antikaliuretic activity
compensation of kaliuresis produced by furosemide ([2]; with Val-O-TA): compensated practically fully

CCNCC(O)COc1ccc(-c2nc3c(N)nc(N)nc3nc2N)cc1 (centres unmarked) [IB, 2,4,7-Triamino-6-[4-(2-hydroxy-3-ethylaminopropoxy)phenyl]-pteridine]
K^+ -excretion (male Wistar rats [1]): 0.161 mmol/kg
Na^+ -excretion (male Wistar rats [1]): 2.98 mmol/kg
Volume of urine (male Wistar rats [1]): 0.01878 L/kg

CN(C)CCCOc1ccc(-c2nc3c(N)nc(N)nc3nc2N)cc1 [DES-OH, 2,4,7-triamino-6-[4-(3-dimethylaminopropoxy)phenyl]-pteridine, reference compound]
ED50 (male Wistar rats [3]; [5]): 0.54 µmol/kg
ED50 (male Wistar rats [3]; [6]): 5.53 µmol/kg

CCCCNCC(O)COc1ccc(-c2nc3c(N)nc(N)nc3nc2N)cc1 (centres unmarked) [IJ, 2,4,7-Triamino-6-[4-(2-hydroxy-3-n-butylaminopropoxy)phenyl]-pteridine]
K^+ -excretion (male Wistar rats [1]): 0.176 mmol/kg
Na^+ -excretion (male Wistar rats [1]): 2.86 mmol/kg
Volume of urine (male Wistar rats [1]): 0.01859 L/kg

Nc1nc(N)c2nc(-c3ccc(OCC(O)CN4CCCCC4)cc3)c(N)nc2n1 (centres unmarked) [IF, 2,4,7-Triamino-6-[4-(2-hydroxy-3-piperidinopropoxy)phenyl]-pteridine]
K^+ -excretion (male Wistar rats [1]): 0.191 mmol/kg
Na^+ -excretion (male Wistar rats [1]): 1.95 mmol/kg
Volume of urine (male Wistar rats [1]): 0.01017 L/kg

CC(C)N(CC(O)COc1ccc(-c2nc3c(N)nc(N)nc3nc2N)cc1)C(C)C (centres unmarked) [IK, 2,4,7-Triamino-6-[4-(2-hydroxy-3-diisopropylaminopropoxy)phenyl]-pteridine]
K^+ -excretion (male Wistar rats [1]): 0.191 mmol/kg
Na^+ -excretion (male Wistar rats [1]): 2.08 mmol/kg
Volume of urine (male Wistar rats [1]): 0.01024 L/kg

CCCCN(CCCC)CC(O)COc1ccc(-c2nc3c(N)nc(N)nc3nc2N)cc1 (centres unmarked) [IL, 2,4,7-Triamino-6-[4-(2-hydroxy-3-di-n-butylaminopropoxy)phenyl]-pteridine]
K^+ -excretion (male Wistar rats [1]): 0.191 mmol/kg
Na^+ -excretion (male Wistar rats [1]): 2.34 mmol/kg
Volume of urine (male Wistar rats [1]): 0.01376 L/kg

Nc1nc(N)c2nc(-c3ccccc3)c(N)nc2n1 [Triamterene, 2,4,7-triamino-6-phenyl-pteridine, reference compound]
ED50 (male Wistar rats [3]; [5]): 1.87 µmol/kg
ED50 (male Wistar rats [3]; [6]): 4.4 µmol/kg
K^+ -excretion (male Wistar rats [1]): 0.402 mmol/kg
Na^+ -excretion (male Wistar rats [1]): 1.17 mmol/kg
Volume of urine (male Wistar rats [1]): 0.00796 L/kg

CC(C)NCC(O)COc1ccc(-c2nc3c(N)nc(N)nc3nc2N)cc1 (centres unmarked) [IH, 2,4,7-Triamino-6-[4-(2-hydroxy-3-isopropylaminopropoxy)phenyl]-pteridine]
K^+ -excretion (male Wistar rats [1]): 0.161 mmol/kg
Na^+ -excretion (male Wistar rats [1]): 2.49 mmol/kg
Volume of urine (male Wistar rats [1]): 0.01474 L/kg

NS(=O)(=O)c1cc(C(=O)O)c(NCc2ccco2)cc1Cl [Furosemide, 4-chloro-N-furfuryl-5-sulfamoylanthranilic acid]
Volume of urine (male Wistar rats [4]): 0.0525 L/kg

CNCC(O)COc1ccc(-c2nc3c(N)nc(N)nc3nc2N)cc1 (centres unmarked) [IC, 2,4,7-Triamino-6-[4-(2-hydroxy-3-methylaminopropoxy)phenyl]-pteridine]
K^+ -excretion (male Wistar rats [1]): 0.211 mmol/kg
Na^+ -excretion (male Wistar rats [1]): 2.63 mmol/kg
Volume of urine (male Wistar rats [1]): 0.01585 L/kg

Nc1nc(N)c2nc(-c3ccc(OCC(O)CN4CCOCC4)cc3)c(N)nc2n1 (centres unmarked) [ID, 2,4,7-Triamino-6-[4-(2-hydroxy-5-morpholinopropoxy)phenyl]-pteridine]
K^+ -excretion (male Wistar rats [1]): 0.237 mmol/kg
Na^+ -excretion (male Wistar rats [1]): 2.78 mmol/kg
Volume of urine (male Wistar rats [1]): 0.0193 L/kg

CN(C)CC(O)COc1ccc(-c2nc3c(N)nc(N)nc3nc2N)cc1 (centres unmarked) [IA, 2,4,7-triamino-6-[4-(2-hydroxy-3-dimethylaminopropoxy)phenyl]-pteridine]
ED50 (male Wistar rats [3]; [5]): 0.24 µmol/kg
ED50 (male Wistar rats [3]; Mg^+2 (magnesium-sparing), read-out: ED50 Mg^+2): 0.4 µmol/kg
ED50 (male Wistar rats [3]; [6]): 9.36 µmol/kg
diuretic efficacy (natriuretic, potassium- and magnesium-sparing properties) (male Wistar rats [3]; i.v.): outstanding diuretic efficacy
K^+ -excretion (male Wistar rats [1]): 0.180 mmol/kg
Na^+ -excretion (male Wistar rats [1]): 2.78 mmol/kg
Volume of urine (male Wistar rats [1]): 0.01598 L/kg

Nc1nc(N)c2nc(-c3ccc(OCC(O)CN4CCCC4)cc3)c(N)nc2n1 (centres unmarked) [IG, 2,4,7-Triamino-6-[4-(2-hydroxy-3-pyrrolidinopropoxy)phenyl]-pteridine]
K^+ -excretion (male Wistar rats [1]): 0.172 mmol/kg
Na^+ -excretion (male Wistar rats [1]): 2.14 mmol/kg
Volume of urine (male Wistar rats [1]): 0.0133 L/kg
